Experimental data taken from patent publication US12590071B2, “Hydrazone derivative in which terminal amine group is substituted with aryl group or heteroaryl group, and use thereof” (KOREA INSTITUTE OF SCIENCE AND TECHNOLOGY, priority 2018, dated 2026).

Columns and labels:
tau protein = molecular target: T1, tau protein (Homo sapiens, UniProt P10636); experiment: Tau protein aggregation inhibition in tau-BiFC cell model; assay type: cell-based; settings: tau-BiFC cells treated together with Forskolin, 48 hours
T1 construct: expressed in transfected cells
Procedure, shortened: (§1)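 Tau-BiFC cells co-treated 48 h with Forskolin ([…]) and compound at 0.03–30 μM. BiFC fluorescence quantified by imaging, IC50 by nonlinear regression; cytotoxicity as Hoechst-stained nuclei count relative to Forskolin-only wells (100% survival).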

Tau-BiFC cells = experiment: Cytotoxicity (cell survival rate) in tau-BiFC cells; settings: group treated with Forskolin alone = 100%
Procedure, shortened: as §1

CYP1A2 = molecular target: T2, CYP1A2 (Homo sapiens, UniProt P05177); experiment: Inhibition of CYP coenzyme activity in human liver microsomes; assay type: in vitro ADME; settings: compound 10 PM (so in the source); human liver microsomes 0.25 mg/mL; substrate phenacetin; 15 minutes
T2 construct: human liver microsomes (0.25 mg/mL); from tissue; host or cells: human liver microsomes
T2 sequence (P05177 1-516): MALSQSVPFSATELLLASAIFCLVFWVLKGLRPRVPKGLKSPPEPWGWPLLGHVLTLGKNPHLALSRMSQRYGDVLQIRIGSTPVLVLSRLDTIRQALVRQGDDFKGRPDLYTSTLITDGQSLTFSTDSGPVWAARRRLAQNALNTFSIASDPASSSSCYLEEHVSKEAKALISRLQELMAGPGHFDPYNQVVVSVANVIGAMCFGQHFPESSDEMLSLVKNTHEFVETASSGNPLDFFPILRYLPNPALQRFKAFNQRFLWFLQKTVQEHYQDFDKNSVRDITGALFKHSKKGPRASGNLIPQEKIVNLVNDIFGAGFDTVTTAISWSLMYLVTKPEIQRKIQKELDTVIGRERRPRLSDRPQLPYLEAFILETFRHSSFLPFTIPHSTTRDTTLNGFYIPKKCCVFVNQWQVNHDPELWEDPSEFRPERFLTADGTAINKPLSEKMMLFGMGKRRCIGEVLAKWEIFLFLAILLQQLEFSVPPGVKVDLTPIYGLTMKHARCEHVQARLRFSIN
Description: (§2) 5 The inhibition effects of CYP coenzyme activity by the compounds prepared according to Examples 1 to 171 was confirmed. Specifically, human liver microsomes (0.25 mg/mL), a 0.1 M phosphate buffer solution (pH 7.4), substrate drug cocktails (phenacetin 50 μM, diclofenac 10 μM, S-mephenytoin 100 μM, dextromethorphan 5 μM, and midazolam 2.5 μM) of five kinds of drug metabolism enzymes, and the compounds with a concentration of 0 μM or 10 PM were added, respectively. Then the mixture was cultured in advance at 37° C. for 5 minutes, and then further cultured at 37° C. for 15 minutes together with the addition of an NADPH generation system solution. Thereafter, a reaction was terminated by adding an acetonitrile solution containing an internal standard material (terfenadine), centrifugal separation (14,000 rpm, 4° C.) was performed for 5 minutes, and then a supernatant was injected into an LC-MS/MS system. Metabolites of the substrate drugs were simultaneously analyzed to evaluate the drug metabolism inhibition ability.
(§3) Metabolites of each CYP coenzyme indicator drug generated through the reaction were analyzed using the Shimadzu Nexera XR system and TSQ vantage (Thermo). Kinetex C18 (2.1 mm×100 mm, 2.6 μm, particle size; Phenomenex, USA) was used in an HPLC column, and (A) distilled water containing 0.1% formic acid and (B) acetonitrile containing 0.1% formic acid were used as mobile phases, and the gradient program shown in Table 2 was applied.
(§4) The generated metabolites were quantified using an MRM (multiple reaction monitoring) quantification mode, and Xcalibur (version 1.6.1) was used for data analysis.

CYP2C19 = molecular target: T3, CYP2C19 (Homo sapiens, UniProt P33261); experiment: as above; assay type: in vitro ADME; settings: compound 10 PM (so in the source); human liver microsomes 0.25 mg/mL; substrate S-mephenytoin; 15 minutes
T3 construct: human liver microsomes (0.25 mg/mL); from tissue; host or cells: human liver microsomes
Description: as §2, §3, §4

CYP2C9 = molecular target: T4, CYP2C9 (Homo sapiens, UniProt P11712); experiment: as above; assay type: in vitro ADME; settings: compound 10 PM (so in the source); human liver microsomes 0.25 mg/mL; substrate diclofenac; 15 minutes
T4 construct: human liver microsomes (0.25 mg/mL); from tissue; host or cells: human liver microsomes
Description: as §2, §3, §4

CYP2D6 = molecular target: T5, CYP2D6 (Homo sapiens, UniProt P10635); experiment: as above; assay type: in vitro ADME; settings: compound 10 PM (so in the source); human liver microsomes 0.25 mg/mL; substrate dextromethorphan; 15 minutes
T5 construct: human liver microsomes (0.25 mg/mL); from tissue; host or cells: human liver microsomes
Description: as §2, §3, §4

CYP3A4 = molecular target: T6, CYP3A4 (Homo sapiens, UniProt P08684); experiment: as above; assay type: in vitro ADME; set-up: scale not given here; settings: compound 10 PM (so in the source); human liver microsomes 0.25 mg/mL; substrate midazolam; 15 minutes
T6 construct: human liver microsomes (0.25 mg/mL); from tissue; host or cells: human liver microsomes
Description: as §2, §3, §4

[1] = Liver microsomal stability (human); assay type: in vitro ADME; settings: amount of substrate remaining; 1 μM, 0.25 mg/mL microsomes, 37° C., 30 minutes
Description: (§5) The liver microsomal stability of the compounds prepared according to Examples 1 to 171 was confirmed. Specifically, four kinds of liver microsomes (human, dog, rat, and mouse, each 0.25 mg/mL), a 0.1 M phosphate buffer solution (pH 7.4), and the compounds with a concentration of 1 μM were added, respectively. Then the mixture was cultured in advance at 37° C. for 5 minutes, and then further cultured at 37° C. for 30 minutes together with the addition of an NADPH generation system solution. Thereafter, a reaction was terminated by adding an acetonitrile solution containing an internal standard material (chloropropamide), centrifugal separation (14,000 rpm, 4° C.) was performed for 5 minutes, and then a supernatant was injected into an LC-MS/MS system. The substrate drugs were analyzed to evaluate the metabolic stability for 8 kinds of compounds.
(§6) The amount of substrate remaining through the reaction was analyzed using the Shimadzu Nexera XR system and TSQ vantage (Thermo). Kinetex XB-C18 (2.1 mm×100 mm, 2.6 μm, particle size; Phenomenex, USA) was used in an HPLC column, and (A) distilled water containing 0.1% formic acid and (B) acetonitrile containing 0.1% formic acid were used as mobile phases. Analyst software (version 1.6.3) and Xcalibur (version 1.6.1) were used for data analysis.

[2] = Liver microsomal stability (dog); assay type: in vitro ADME; settings: amount of substrate remaining; 1 μM, 0.25 mg/mL microsomes, 37° C., 30 minutes
Description: as §5, §6

[3] = Liver microsomal stability (rat); assay type: in vitro ADME; settings: amount of substrate remaining; 1 μM, 0.25 mg/mL microsomes, 37° C., 30 minutes
Description: as §5, §6

[4] = Liver microsomal stability (mouse); assay type: in vitro ADME; settings: amount of substrate remaining; 1 μM, 0.25 mg/mL microsomes, 37° C., 30 minutes
Description: as §5, §6

T5 sequence (P10635 whole entry): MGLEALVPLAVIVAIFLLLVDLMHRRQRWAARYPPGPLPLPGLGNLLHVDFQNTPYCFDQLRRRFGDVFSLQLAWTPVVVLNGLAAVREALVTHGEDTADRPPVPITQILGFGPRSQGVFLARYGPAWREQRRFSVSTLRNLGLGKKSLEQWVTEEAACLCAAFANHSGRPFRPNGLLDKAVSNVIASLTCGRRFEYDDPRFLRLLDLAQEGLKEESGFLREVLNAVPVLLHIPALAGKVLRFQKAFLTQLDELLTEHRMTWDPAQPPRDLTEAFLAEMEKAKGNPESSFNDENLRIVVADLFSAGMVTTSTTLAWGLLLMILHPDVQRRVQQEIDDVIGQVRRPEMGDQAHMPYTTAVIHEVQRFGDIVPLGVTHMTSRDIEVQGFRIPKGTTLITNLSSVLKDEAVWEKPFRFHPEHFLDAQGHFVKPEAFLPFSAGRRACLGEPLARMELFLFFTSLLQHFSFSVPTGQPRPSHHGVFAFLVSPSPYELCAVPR
T6 sequence (P08684 whole entry): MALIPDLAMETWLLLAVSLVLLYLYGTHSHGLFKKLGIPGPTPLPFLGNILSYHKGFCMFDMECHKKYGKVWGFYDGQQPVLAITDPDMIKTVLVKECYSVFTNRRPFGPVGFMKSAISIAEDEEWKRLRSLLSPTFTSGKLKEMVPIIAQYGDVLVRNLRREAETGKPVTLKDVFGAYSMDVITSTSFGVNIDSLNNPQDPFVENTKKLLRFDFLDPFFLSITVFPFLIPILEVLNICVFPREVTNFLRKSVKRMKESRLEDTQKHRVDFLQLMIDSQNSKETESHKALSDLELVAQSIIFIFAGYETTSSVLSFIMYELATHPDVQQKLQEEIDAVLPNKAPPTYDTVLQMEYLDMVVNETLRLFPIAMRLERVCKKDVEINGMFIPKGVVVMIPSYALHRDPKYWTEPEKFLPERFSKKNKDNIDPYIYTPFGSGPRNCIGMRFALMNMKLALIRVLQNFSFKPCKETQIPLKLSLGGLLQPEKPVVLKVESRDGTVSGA
T1 sequence (P10636 2-441 isoform P10636-8 limits assumed): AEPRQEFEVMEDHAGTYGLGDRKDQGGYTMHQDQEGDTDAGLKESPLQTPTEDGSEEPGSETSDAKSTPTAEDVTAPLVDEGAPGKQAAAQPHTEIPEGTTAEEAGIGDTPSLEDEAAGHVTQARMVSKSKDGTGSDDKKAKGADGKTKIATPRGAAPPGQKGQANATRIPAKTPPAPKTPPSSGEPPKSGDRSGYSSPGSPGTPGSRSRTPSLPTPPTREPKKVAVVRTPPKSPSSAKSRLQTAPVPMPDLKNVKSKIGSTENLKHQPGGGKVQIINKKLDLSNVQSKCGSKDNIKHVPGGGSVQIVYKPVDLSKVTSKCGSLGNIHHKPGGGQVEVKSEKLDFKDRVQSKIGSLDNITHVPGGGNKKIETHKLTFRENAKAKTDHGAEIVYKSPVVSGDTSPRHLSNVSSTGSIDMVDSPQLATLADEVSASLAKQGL
T3 sequence (P33261 whole entry): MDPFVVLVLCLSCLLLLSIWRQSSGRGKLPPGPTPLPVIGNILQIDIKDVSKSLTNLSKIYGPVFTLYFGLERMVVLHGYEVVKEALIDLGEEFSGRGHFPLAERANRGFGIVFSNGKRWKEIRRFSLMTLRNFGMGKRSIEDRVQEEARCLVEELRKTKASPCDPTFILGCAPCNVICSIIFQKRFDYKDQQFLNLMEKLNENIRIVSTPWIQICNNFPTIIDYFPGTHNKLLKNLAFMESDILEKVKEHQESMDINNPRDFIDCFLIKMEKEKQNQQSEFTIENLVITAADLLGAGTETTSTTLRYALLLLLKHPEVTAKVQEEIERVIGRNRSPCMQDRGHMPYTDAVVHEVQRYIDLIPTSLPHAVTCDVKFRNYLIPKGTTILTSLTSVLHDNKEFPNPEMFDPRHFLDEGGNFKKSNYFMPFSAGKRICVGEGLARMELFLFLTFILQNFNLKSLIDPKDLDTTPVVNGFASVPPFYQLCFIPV
T4 sequence (P11712 whole entry): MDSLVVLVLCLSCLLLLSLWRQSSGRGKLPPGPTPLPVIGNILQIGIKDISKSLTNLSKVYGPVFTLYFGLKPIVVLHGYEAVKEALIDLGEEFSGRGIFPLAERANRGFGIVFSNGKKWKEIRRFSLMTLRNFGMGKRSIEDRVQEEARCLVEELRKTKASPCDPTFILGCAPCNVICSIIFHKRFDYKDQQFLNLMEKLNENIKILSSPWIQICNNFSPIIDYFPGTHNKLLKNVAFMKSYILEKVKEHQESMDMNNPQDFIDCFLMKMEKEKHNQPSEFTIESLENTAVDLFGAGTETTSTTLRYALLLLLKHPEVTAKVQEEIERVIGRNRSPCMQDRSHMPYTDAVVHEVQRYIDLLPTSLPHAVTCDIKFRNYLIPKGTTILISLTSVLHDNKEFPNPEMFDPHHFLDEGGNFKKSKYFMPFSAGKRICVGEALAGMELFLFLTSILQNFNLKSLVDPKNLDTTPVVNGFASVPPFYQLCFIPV

Compound	IC50 (tau protein) [nM]	Cell survival rate (% @ 10 μM) (Tau-BiFC cells) [%]	inhibition effects of CYP coenzyme activity, CYP1A2 (CYP1A2)	inhibition effects of CYP coenzyme activity, CYP2C19 (CYP2C19)	inhibition effects of CYP coenzyme activity, CYP2C9 (CYP2C9)	inhibition effects of CYP coenzyme activity, CYP2D6 (CYP2D6)	inhibition effects of CYP coenzyme activity, CYP3A4 (CYP3A4)	liver microsomal stability, Human (%) [1] [%]	liver microsomal stability, Dog (%) [2] [%]	liver microsomal stability, Rat (%) [3] [%]	liver microsomal stability, Mouse (%) [4] [%]
N#CC(C#N)=NNc1cnc2[nH]ccc2c1 [Compound 72, (1H-pyrrolo[2,3-b]pyridin-5-yl)carbonohydrazonoyl dicyanide]	35	89.5	85.8	97.8	88.7	98.9	>100	86.3	84.8	72.8	58.6
Cc1ccnc(-c2ccc(NN=C(C#N)C#N)c(F)c2)n1 [Compound 37, (2-fluoro-4-(4-methylpyrimidin-2-yl)phenyl)carbonohydrazonoyl dicyanide]	1340	88.3	78.1	100	56.9	>100	>100	55.7	61	25.9	32.7
Cc1ncsc1-c1ccc(NN=C(C#N)C#N)cc1 [Compound 12, (4-(4-methylthiazol-5-yl)phenyl)carbonohydrazonoyl dicyanide]	30	119.3	88.1	81.3	7.4	87.8	91.6	52.2	81.6	25.8	45.2
Cn1ncc2ccc(NN=C(C#N)C#N)cc21 [Compound 63, (1-methyl-1H-indazol-6-yl)carbonohydrazonoyl dicyanide]	740	111.4	43.3	>100	84.2	>100	>100	87.4	82.6	72.1	9.5
Cc1cnc(-c2ccc(NN=C(C#N)C#N)cc2)nc1 [Compound 4, (4-(5-methylpyrimidin-2-yl)phenyl)carbonohydrazonoyl dicyanide]	650	93.1	85.1	90.7	81.5	97.3	>100	70.1	75	4.5	35.6
N#CC(C#N)=NNc1ccc2nc(NC(=O)c3ccccc3O)sc2c1 [Compound 87, (2-(2-hydroxybenzamido)benzo[d]thiazol-6-yl)carbonohydrazonoyl dicyanide]	400	75.3	77	86.4	53.5	83.6	62.7	82.1	80.6	73.9	83.1
CN(C)c1ccc(-c2ccc(NN=C(C#N)C#N)cc2)cc1 [Compound 151, (4′-(dimethylamino)biphenyl-4-yl)carbohydrazonoyl dicyanide]	650	69.5	94.4	85.2	83.6	94.6	94.4	94.4	83.6	85.2	94.6
COc1cnc(-c2ccc(NN=C(C#N)C#N)cc2)nc1 [Compound 8, (4-(5-methoxypyrimidin-2-yl)-phenyl)carbonohydrazonoyl dicyanide]	20	107.8	94.1	>100	85.1	>100	>100	80.9	96	40.7	83.7
N#CC(C#N)=NNc1ccc2scnc2c1 [Compound 61, benzo[d]thiazol-5-ylcarbonohydrazonoyl dicyanide]	3100	111.7	45.1	93.6	75.5	>100	90.1	70.4	32.6	66.2	33.5
